Each structure is given as a SMILES string.

The target of the experiment is PI3K-alpha (Homo sapiens (Human), UniProt P42336). Briefly: HTRF PI3K biochemical assay, alpha isoform. The settings on record: ratio PI3K-alpha IC50 value/PI3K-delta IC50 value. (In general: TR-FRET usually uses a lanthanide donor and a delayed reading to cut background.)
PI3K-alpha, sequence (P42336 whole entry, looked up, canonical isoform): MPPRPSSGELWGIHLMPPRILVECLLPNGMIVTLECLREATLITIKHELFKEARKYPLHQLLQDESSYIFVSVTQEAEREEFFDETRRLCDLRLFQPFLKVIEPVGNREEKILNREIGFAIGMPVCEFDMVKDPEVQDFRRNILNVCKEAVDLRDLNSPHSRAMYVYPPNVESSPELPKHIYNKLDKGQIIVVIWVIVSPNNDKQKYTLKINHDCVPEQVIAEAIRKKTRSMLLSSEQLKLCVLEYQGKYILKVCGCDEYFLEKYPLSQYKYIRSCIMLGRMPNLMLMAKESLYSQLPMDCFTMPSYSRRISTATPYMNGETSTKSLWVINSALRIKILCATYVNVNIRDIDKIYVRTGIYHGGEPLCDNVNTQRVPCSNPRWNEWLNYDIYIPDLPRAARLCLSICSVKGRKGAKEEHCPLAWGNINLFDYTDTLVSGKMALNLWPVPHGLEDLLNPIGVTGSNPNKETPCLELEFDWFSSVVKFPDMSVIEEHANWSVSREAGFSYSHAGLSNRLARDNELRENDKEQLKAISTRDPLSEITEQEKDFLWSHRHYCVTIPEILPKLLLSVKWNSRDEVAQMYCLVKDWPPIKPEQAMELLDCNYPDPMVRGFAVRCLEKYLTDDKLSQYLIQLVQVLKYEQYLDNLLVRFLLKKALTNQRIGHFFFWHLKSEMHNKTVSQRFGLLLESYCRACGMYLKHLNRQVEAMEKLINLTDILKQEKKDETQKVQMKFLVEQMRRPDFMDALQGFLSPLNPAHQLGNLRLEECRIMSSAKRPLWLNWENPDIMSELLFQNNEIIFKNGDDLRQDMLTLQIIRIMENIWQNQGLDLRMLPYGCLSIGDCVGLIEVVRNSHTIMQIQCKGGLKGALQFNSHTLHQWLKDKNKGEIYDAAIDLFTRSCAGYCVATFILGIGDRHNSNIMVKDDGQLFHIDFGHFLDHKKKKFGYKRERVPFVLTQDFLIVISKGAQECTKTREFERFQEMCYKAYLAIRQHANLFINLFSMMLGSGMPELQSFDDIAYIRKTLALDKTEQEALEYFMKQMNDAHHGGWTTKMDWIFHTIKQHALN
PI3K-alpha, sequence (P27986 whole entry partner, looked up, canonical isoform): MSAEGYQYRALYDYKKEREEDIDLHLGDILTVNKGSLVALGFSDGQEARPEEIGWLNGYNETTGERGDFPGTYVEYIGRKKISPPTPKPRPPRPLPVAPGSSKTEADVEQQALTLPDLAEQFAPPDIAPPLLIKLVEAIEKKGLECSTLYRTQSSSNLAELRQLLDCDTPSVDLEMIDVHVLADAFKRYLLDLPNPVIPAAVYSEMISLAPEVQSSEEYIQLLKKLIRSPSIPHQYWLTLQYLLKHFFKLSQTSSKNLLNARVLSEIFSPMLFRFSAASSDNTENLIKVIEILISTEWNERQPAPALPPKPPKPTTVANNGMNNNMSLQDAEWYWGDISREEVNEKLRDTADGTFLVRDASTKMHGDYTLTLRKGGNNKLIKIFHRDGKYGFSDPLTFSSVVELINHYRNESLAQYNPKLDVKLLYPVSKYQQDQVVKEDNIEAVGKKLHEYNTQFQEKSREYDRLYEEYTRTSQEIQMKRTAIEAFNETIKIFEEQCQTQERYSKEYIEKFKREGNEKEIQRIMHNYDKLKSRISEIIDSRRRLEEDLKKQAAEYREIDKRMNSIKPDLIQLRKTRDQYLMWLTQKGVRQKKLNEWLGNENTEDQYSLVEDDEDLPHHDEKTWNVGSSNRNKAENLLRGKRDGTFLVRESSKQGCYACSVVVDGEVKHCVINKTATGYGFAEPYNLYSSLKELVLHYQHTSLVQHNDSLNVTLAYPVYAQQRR
In the case of `CCC(=O)N1CC[C@H](Oc2ncnc3c2nc(-c2cnc(C(C)(C)C)s2)n3C)C1` [Compound 2-96, (S)-1-(3-((8-(2-(tert-butyl)thiazol-5-yl)-9-methyl-9H-purin-6-yl)oxy)pyrrolidin-1-yl)propan-1-one], the “Relative Selectivity versus PI3Kalpha” value is on record as more than 10.
Regarding `CCC(=O)N1CC[C@H](Oc2ncnc3c2nc(-c2cnn(CC)c2C)n3C2CC2)C1` [Compound 2-97, (S)-1-(3-((9-cyclopropyl-8-(1-ethyl-5-methyl-1H-pyrazol-4-yl)-9H-purin-6-yl)oxy)pyrrolidin-1-yl)propan-1-one], the “Relative Selectivity versus PI3Kalpha” value is on record as more than 10.
The same measure for `CCn1c(-c2cnc(C)nc2)nc2c(O[C@H]3CCN(C(=O)C4CC4)[C@@H]3C)ncnc21` [Compound 2-98, 6-{[(2R,3S)-1-(cyclopropylcarbonyl)-2-methylpyrrolidin-3-yl]oxy}-9-ethyl-8-(2-methylpyrimidin-5-yl)-9H-purine]: more than 10.
As for `CCn1c(-c2cnc(C)nc2)nc2c(OC3CN(C(=O)C4CC4)CC3(F)F)ncnc21` (stereo not shown) [Compound 2-99, 6-{[1-(cyclopropylcarbonyl)-4,4-difluoropyrrolidin-3-yl]oxy}-9-ethyl-8-(2-methylpyrimidin-5-yl)-9H-purine], the figure is more than 10; as for `CCn1c(-c2cnc(C)nc2)nc2c(O[C@H]3CCN(C(=O)[C@@H]4CCC[C@H]4N)C3)ncnc21` [Compound 2-101, (1R,2R)-2-{[(3S)-3-{[9-ethyl-8-(2-methylpyrimidin-5-yl)-9H-purin-6-yl]oxy}pyrrolidin-1-yl]carbonyl}cyclopentanamine], more than 10.
With `CCn1c(-c2cnc(C)nc2)nc2c(O[C@H]3CCN(C(=O)C4CNC4)C3)ncnc21` [Compound 2-102, 6-{[(3S)-1-(azetidin-3-ylcarbonyl)pyrrolidin-3-yl]oxy}-9-ethyl-8-(2-methylpyrimidin-5-yl)-9H-purine], the “Relative Selectivity versus PI3Kalpha” value is reported as more than 10.
Consider `CCn1c(-c2cnc(C)nc2)nc2c(O[C@H]3CCN(C(=O)[C@H]4CCC[C@H]4N)C3)ncnc21` [Compound 2-103, (1R,2S)-2-{[(3S)-3-{[9-ethyl-8-(2-methylpyrimidin-5-yl)-9H-purin-6-yl]oxy}pyrrolidin-1-yl]carbonyl}cyclopentanamine], for which the “Relative Selectivity versus PI3Kalpha” value is given as more than 10.
With `CCn1c(-c2cnc(C)nc2)nc2c(O[C@H]3CCN(C(=O)[C@@H]4CN5CC[C@H]4C5)C3)ncnc21` [Compound 2-104, 6-({(3S)-1-[(3S,4R)-1-azabicyclo[2.2.1]hept-3-ylcarbonyl]pyrrolidin-3-yl}oxy)-9-ethyl-8-(2-methylpyrimidin-5-yl)-9H-purine], the “Relative Selectivity versus PI3Kalpha” value is recorded as more than 10.
As for `CCn1ncc(-c2nc3c(O[C@H]4CCN(C(=O)C5CCC5)C4)ncnc3n2C)c1C` [Compound 2-105, 6-{[(3S)-1-(cyclobutylcarbonyl)pyrrolidin-3-yl]oxy}-8-(1-ethyl-5-methyl-1H-pyrazol-4-yl)-9-methyl-9H-purine], the figure is more than 10; as for `CCn1ncc(-c2nc3c(O[C@H]4CCN(C(=O)C5CC(F)(F)C5)C4)ncnc3n2C)c1C` [Compound 2-106, 6-({(3S)-1-[(3,3-difluorocyclobutyl)carbonyl]pyrrolidin-3-yl}oxy)-8-(1-ethyl-5-methyl-1H-pyrazol-4-yl)-9-methyl-9H-purine], more than 10.
As for `CCn1c(-c2cnc(C)nc2)nc2c(O[C@H]3CCN(C(=O)C4CC4)C3)ncnc21` [Compound 2-107, 6-{[(3S)-1-(cyclopropylcarbonyl)pyrrolidin-3-yl]oxy}-9-ethyl-8-(2-methylpyrimidin-5-yl)-9H-purine], the figure is more than 10; as for `CCn1c(-c2cnc(C)nc2)nc2c(O[C@H]3CCN(C(=O)C4CC4C)C3)ncnc21` (stereo partly drawn) [Compound 2-108, 9-ethyl-6-({(3S)-1-[(2-methylcyclopropyl)carbonyl]pyrrolidin-3-yl}oxy)-8-(2-methylpyrimidin-5-yl)-9H-purine], more than 10.
`CCn1c(-c2cnc(C)nc2)nc2c(O[C@H]3CCN(C(=O)c4ccn(C)n4)C3)ncnc21` [Compound 2-109, 9-ethyl-6-({(3S)-1-[(1-methyl-1H-pyrazol-3-yl)carbonyl]pyrrolidin-3-yl}oxy)-8-(2-methylpyrimidin-5-yl)-9H-purine]: the “Relative Selectivity versus PI3Kalpha” value was more than 10.
The same measure for `CCn1c(-c2cnc(C)nc2)nc2c(O[C@H]3CCN(C(=O)[C@H]4C[C@H]5CC[C@@H]4C5)C3)ncnc21` [Compound 2-110, 6-({(3S)-1-[(1R,2S,4S)-bicyclo[2.2.1]hept-2-ylcarbonyl]pyrrolidin-3-yl}oxy)-9-ethyl-8-(2-methylpyrimidin-5-yl)-9H-purine]: more than 10.
On to `CCn1c(-c2cnc(C)nc2)nc2c(O[C@H]3CCN(C(=O)[C@@H](N)C(C)C)C3)ncnc21` [Compound 2-111, (2S)-1-[(3S)-3-{[9-ethyl-8-(2-methylpyrimidin-5-yl)-9H-purin-6-yl]oxy}pyrrolidin-1-yl]-3-methyl-1-oxobutan-2-amine], for which the “Relative Selectivity versus PI3Kalpha” value is more than 10.
As for `CCn1c(-c2cnc(C)nc2)nc2c(O[C@H]3CCN(C(=O)C4(N)CCC4)C3)ncnc21` [Compound 2-112, 1-{[(3S)-3-{[9-ethyl-8-(2-methylpyrimidin-5-yl)-9H-purin-6-yl]oxy}pyrrolidin-1-yl]carbonyl}cyclobutanamine], the figure is more than 10; as for `CCn1c(-c2cnc(C)nc2)nc2c(O[C@H]3CCN(C(=O)C4CCOC4)C3)ncnc21` (stereo partly drawn) [Compound 2-113, 9-ethyl-8-(2-methylpyrimidin-5-yl)-6-{[(3S)-1-(tetrahydrofuran-3-ylcarbonyl)pyrrolidin-3-yl]oxy}-9H-purine], more than 10; as for `CCn1c(-c2cnc(C)nc2)nc2c(O[C@H]3CCN(C(=O)CC(C)(C)N)C3)ncnc21` [Compound 2-114, 4-[(3S)-3-{[9-ethyl-8-(2-methylpyrimidin-5-yl)-9H-purin-6-yl]oxy}pyrrolidin-1-yl]-2-methyl-4-oxobutan-2-amine], more than 10.
On to `CCn1c(-c2cnc(C)nc2)nc2c(O[C@H]3CCN(C(=O)C=C(C)C)C3)ncnc21` [Compound 2-116, 9-ethyl-6-{[(3S)-1-(3-methylbut-2-enoyl)pyrrolidin-3-yl]oxy}-8-(2-methylpyrimidin-5-yl)-9H-purine], for which the “Relative Selectivity versus PI3Kalpha” value is listed as more than 10.
As for `CCn1c(-c2cnc(C)nc2)nc2c(O[C@H]3CCN(C(=O)C4[C@@H](C)[C@@H]4C)C3)ncnc21` (stereo partly drawn) [Compound 2-121, 6-({(3S)-1-[(2S,3S)-(2,3-dimethylcyclopropyl)carbonyl]pyrrolidin-3-yl}oxy)-9-ethyl-8-(2-methylpyrimidin-5-yl)-9H-purine], the “Relative Selectivity versus PI3Kalpha” value was more than 10.
As for `CCn1c(-c2cnc(C)nc2)nc2c(O[C@H]3CCN(C(=O)C4C(C)C4C)C3)ncnc21` (stereo partly shown) [Compound 2-128], the figure is more than 10.
The same measure for `CCn1c(-c2cnc(C)nc2)nc2c(O[C@H]3CCN(C(=O)C4CC(C)C4)C3)ncnc21` (stereo partly drawn) [Compound 2-129, 9-ethyl-6-({(3S)-1-[(3-methylcyclobutyl)carbonyl]pyrrolidin-3-yl}oxy)-8-(2-methylpyrimidin-5-yl)-9H-purine]: more than 10.

The record behind these values is patent US9730940B2, “Purine inhibitors of human phosphatidylinositol 3-kinase delta” (priority 2012, dated 2017).
